Experiment [1] relates to Porphyromonas gingivalis CCUG 25893/ATCC 33277. Description: MIC microdilution test. Particulars: CCUG 25893, strict anaerobic conditions. The format is cell-based. Here is the method: (§1) The test substance solution was prepared aseptically at 1 g/ml in sterile H2O. […] After 48 and 72 hours of incubation, the OD was measured and ocular assessments were done. […] All strains were recovered from microbanks and streak and subculture plates were made. The aerobes on TSA plates, the fastidious aerobes on horse blood plates and the anaerobe on FAA plates. […] At the time of testing, loopfuls of colonies selected from 18- to 24-hour agar plates for the aerobes and fastidious aerobes were suspended in 5 ml saline in 10 ml tubes containing 10 glass beads a 3 mm in diameter. […] The cell suspensions were then vortexed vigorously for 1 minute to obtain a turbid suspension. Each suspension of the aerobes and fastidious aerobes was adjusted to equal OD 0.28 at 475 nm using a spectrophotometer, which correlates approximately to 1-3×10^8 CFU/ml with most species. For the anaerobe, the OD measurement turned out to be difficult due to the use of blood in the culture medium. […] The aerobes and fastidious aerobes were further diluted in saline 10 times so that the inoculum concentration equaled to […]. The anaerobe was not diluted but used directly as is. The different aerobic and fastidious aerobic bacterial suspensions were transferred to respective wells of a 96 well plate. A. baumannii, E. coli, and P. aeruginosa were placed in one row, the Staphylococci spp. were placed in a second row, and the fastidious aerobes were placed in a third row of the plate. The anaerobe was transferred from a 25 ml multichannel pipette reservoir. The Microdilution Preparations and the MIC tests were performed as in example 13.
In general terms: Dilution methods test growth across graded concentrations, often in twofold steps.

The test system of experiment [2] is Pseudomonas aeruginosa (PAO1) CCUG 56489/ATCC 15692. The experiment is described as follows: MIC microdilution test. Type of experiment: cell-based. To be noted: CCUG 56489, aerobic. The method, then: as §1
The next experiment concerns C. glabrata. The experiment is described as follows: Mature biofilm cell survival, serial dilution plating on YPD. Type of experiment: cell-based, Candida glabrata. Particulars: 0.2 and 0.5 g/ml, 5 h of incubation, 37° C. The method, then: (§2) The plated cells were incubated for 24 h at 37° C. and visually analyzed. The cells from the mature biofilm treated with water were used as a control. […] At the concentrations of 0.2 and 0.5 g/ml after 5 h of incubation the cell viability was decreased by about 100 times for both C. albicans and C. glabrata.

The test system of the next experiment is C. albicans. The description is as above. The format is cell-based, Candida albicans. The method, then: as §2
The subject of another experiment is Candida albicans. The experiment is described as follows: Biofilm formation in a model of in vivo conditions (pellet release in pH 3.71 buffer). Type of experiment: cell-based. Here is the method: (§3) Biofilm was measured in liquid culture as described [K. Scherz et al., G3 (Bethesda), 2014, 4, 1671-1680. I. Serrano-Fujarte et al. Biomed Res Int. 2015; 2015:783639] with some modifications. Prior the biofilm assay, yeast cultures were grown in liquid YPD medium for 24 hours until stationary phase (OD600 11-17)^2, cells were then pelleted by centrifugation (1699 g), washed with sterile water and cells were further inoculated into test biofilm medium (YNB (yeast nitrogen base without amino acids and ammonium sulphate) supplemented with 0.5% ammonium sulphate, 0.2% glucose and 100 mM L-proline pH7.0) at final concentration 0.2 OD600/ml and incubated in 96-well flat-bottom polystyrene microtiter plates (Sigma Aldrich, Corning® Costar® culture plates, CLS3596-50EA) for 72 hours at 37° C. thermostat. At defined time points crystal violet (HT901-8FOZ; Sigma Aldrich) was added to the media at the final concentration 0.05%, in addition total biomass was measured. After 24 hours of cells staining, plate wells were washed four times with 200 μl of water to remove planktonic cells, biofilms were then dried and dissolved in 200 μl of 96% ethanol. Total biomass and crystal violet biofilm staining measurements were performed at OD560 with FLUOstar OPTIMA plate reader, BMG LABTECH. Crystal violet biofilm measurements were normalized to the total biomass (OD560Biofilm/OD560 total biomass).
(§4) Pellet of lactonized/oligomerized gluconic acid (1.3 g, duplicate samples) were added to buffer solution of pH 3.71 (0.5 M KH2PO/ortho phosphoric acid, 10 mL) at 37° C. Samples (4 mL) were taken every hour (1, 2, 3, 4, 5, 6 and 24 h) and new buffer solution (4 mL) was added. The samples were diluted 50 times with biofilm medium (vide supra) and the amount of biofilm formation was measured after 24 h as described above. […]
(§5) Samples (4 mL) were taken at fixed time points (1, 2, 3, 4, 5, 6 and 24 h) and new buffer solution (4 mL) was added. The samples were diluted 50 times with biofilm medium (vide supra) and the amount of biofilm formation was measured after 24 h as described above. […]

In the next experiment the test system is Candida glabrata. The description is as above. To be noted: pellet 2.5 g in pH 3.71 buffer at 37° C, sample after 1 h, diluted 50 times, biofilm after 24 h. Type of experiment: cell-based. The method, then:
as §3, §4, §5

Structures are written as SMILES.

In the case of `O=C1O[C@H](CO)[C@@H](O)[C@H](O)[C@H]1O` [GDA, glucono-δ-lactone], the “MIC (g/ml)” value in experiment [1] and in experiment [2] was 0.0031 g/ml throughout. Further, the “decrease of cell viability” value in the experiment on C. glabrata is on record as “about 100 times”; in the experiment on C. albicans (0.2 and 0.5 g/ml, 5 h of incubation, 37° C), “about 100 times”; in the experiment with C. albicans (0.5 g/ml, 73 h of incubation), “about 1000 times”. Also, the “Normalized biofilm (% of control), 1 h” value in the experiment with Candida albicans (pellet 2.5 g in pH 3.71 buffer at 37° C, sample after 1 h, diluted 50 times, biofilm after 24 h) is 8.3 % of control; with Candida glabrata it was 71 % of control. The “duration of preventive effect on biofilm formation from pellet hydrolysis” value with Candida albicans (pellet in pH 3.71 buffer, samples 1-24 h diluted 50 times) was no less than 24 h.

The values above are taken from patent publication US12226396B2, “Gluconic acid derivatives for use in the treatment and/or prevention of microbial infections” (GEDEA BIOTECH AB, priority 2017, dated 2025).
